# Measurements reported in patent US9574176B2 (priority 2012, dated 2017).
# Key:
# [1] = tested on: WT mouse-derived neural stem cells; assay type: cell-based
# [2] = tested on: human neural progenitor cells (NHNP); assay type: cell-based
substance,measurement,setting,value
ω-conotoxin GVIA,differentiation after passaging with inhibitor,[1],differentiation into Tuj-1 (class III β-tubulin)-positive nerve cells and GFAP (grail fibrillary acidic protein)-positive astrocytes could be confirmed
same,differentiation after passaging with inhibitor,[2],many cells differentiate into Tuj-1 (class III β-tubulin)-positive nerve cells and some cells differentiate into GFAP (grail fibrillary acidic protein)-positive astrocytes
